Where “and” joins values, the source holds several entries; their conditions need not be identical. Identical values can stand only once. Calls of active or inactive are those of the source. The rule behind the calls is not given here.
Tests used:
MDCK = test: (§1) Cytotoxicity against MDCK cells by MTT assay; type: cell-based, Canis lupus familiaris; conditions: dog, mdck
Influenza A virus [1] = test: Antiviral activity against Influenza A virus (A/Vietnam/1194/2004(H5N1)) infected in MDCK cells by plaque reduction assay; type: functional, organism-based
[2] = Selectivity index, ratio of CC50 for MDCK cells to IC50 for Influenza A virus (A/Vietnam/1194/2004(H5N1)); type: functional
[3] = as §1; type: cell-based, Canis lupus familiaris; conditions: dog, MDCK cells
Influenza A virus [4] = test: Antiviral activity against Influenza A virus (A/Vietnam/1194/2004(H5N1)) infected in MDCK cells assessed as inhibition of viral entry at 20 uM treated at the time of infection; type: functional, organism-based
H5N1 subtype [5] = test: Inhibition of H5N1 subtype neuraminidase up to 20 uM
Influenza A virus [6] = test: Antiviral activity against Influenza A virus (A/Vietnam/1194/2004(H5N1)) infected in MDCK cells assessed as inhibition of viral entry at 20 uM treated 2 hrs post infection; type: functional, organism-based
Influenza A virus [7] = test: Antiviral activity against Influenza A virus (A/Vietnam/1194/2004(H5N1)) infected in MDCK cells assessed as inhibition of viral entry at 20 uM treated 2 hrs prior to infection; type: functional, organism-based
H5N1 subtype [8] = test: Inhibition of H5N1 subtype hemagglutinin adsorption into chicken RBC at 100 ug/mL
H5N1 subtype [9] = test: Antiviral activity against H5N1 subtype infected in MDCK cells; type: functional, organism-based; conditions: Influenza A virus
[10] = Selectivity index, ratio of cytotoxicity against MDCK cells to antiviral activity against H5N1 subtype; type: toxicity, cell-based; conditions: dog, read-out: Selectivity Index
[11] = Influenza A virus, MDCK, read-out: IC50

| SMILES | CC50 (MDCK) | IC50 (Influenza A virus [1]; mdck, read-out: IC50) | Ratio CC50/IC50 [2] | CC50 [3] | other results |
| --- | --- | --- | --- | --- | --- |
| Cc1cc2c(c(O)c1-c1c(C)cc3c(c1O)/C(=C/N[C@@H](C)C(=O)[O-])C(=O)C(O)=C3C(C)C)/C(=C/N[C@@H](C)C(=O)[O-])C(=O)C(O)=C2C(C)C.[Na+].[Na+] (stereo in doubt; (+)-5b) | 47.3 µM | 0.47 µM | 100.72 |  |  |
| COC(=O)[C@H](Cc1c[nH]c2ccccc12)N/C=C1\C(=O)C(O)=C(C(C)C)c2cc(C)c(-c3c(C)cc4c(c3O)/C(=C/N[C@@H](Cc3c[nH]c5ccccc35)C(=O)OC)C(=O)C(O)=C4C(C)C)c(O)c21 (stereo in doubt; (-)-11a) |  | 3.37 µM | >10.77 | > 36.3 µM |  |
| Cc1cc2c(c(O)c1-c1c(C)cc3c(c1O)/C(=C/N[C@@H]1[C@@H](O)[C@H](O)[C@@H](CO)O[C@H]1O)C(=O)C(O)=C3C(C)C)/C(=C/N[C@@H]1[C@@H](O)[C@H](O)[C@@H](CO)O[C@H]1O)C(=O)C(O)=C2C(C)C |  |  |  | 21.8 µM | IC50 (Influenza A virus [1]; mdck): Not Active |
| Cc1cc2c(c(O)c1-c1c(C)cc3c(c1O)/C(=C/N[C@@H](Cc1c[nH]c4ccccc14)C(=O)[O-])C(=O)C(O)=C3C(C)C)/C(=C/N[C@@H](Cc1c[nH]c3ccccc13)C(=O)[O-])C(=O)C(O)=C2C(C)C.[Na+].[Na+] (stereo in doubt; (-)-7a) |  | 0.53 µM | >67.26 | > 35.6 µM |  |
| Cc1cc2c(c(O)c1-c1c(C)cc3c(c1O)/C(=C/N[C@@H](C)C(=O)O)C(=O)C(O)=C3C(C)C)/C(=C/N[C@@H](C)C(=O)O)C(=O)C(O)=C2C(C)C (stereo in doubt; (-)-5a) |  |  |  |  | inhibition (Influenza A virus [4]): inactive; inhibition (H5N1 subtype [5]): inactive; inhibition (Influenza A virus [6]): inactive; inhibition (Influenza A virus [7]): inactive; inhibition (H5N1 subtype [8]): inactive |
| COC(=O)[C@H](Cc1c[nH]c2ccccc12)N/C=C1\C(=O)C(O)=C(C(C)C)c2cc(C)c(-c3c(C)cc4c(c3O)/C(=C/N[C@@H](Cc3c[nH]c5ccccc35)C(=O)OC)C(=O)C(O)=C4C(C)C)c(O)c21 (stereo in doubt; (+)-11b) | 36.3 µM | 1.6 µM | 22.68 |  |  |
| Cc1cc2c(c(O)c1-c1c(C)cc3c(c1O)/C(=C/N[C@H](C(=O)[O-])C(C)C)C(=O)C(O)=C3C(C)C)/C(=C/N[C@H](C(=O)[O-])C(C)C)C(=O)C(O)=C2C(C)C.[Na+].[Na+] (stereo in doubt; (-)-6a) |  | 2.63 µM | >16.66 | > 43.8 µM |  |
| Cc1cc2c(c(O)c1-c1c(C)cc3c(c1O)/C(=C/N[C@@H](C)C(=O)[O-])C(=O)C(O)=C3C(C)C)/C(=C/N[C@@H](C)C(=O)[O-])C(=O)C(O)=C2C(C)C.[Na+].[Na+] (stereo in doubt; (-)-5a) |  | 1.07 µM | >44.24 | > 47.3 µM |  |
| COC(=O)[C@H](C)N/C=C1\C(=O)C(O)=C(C(C)C)c2cc(C)c(-c3c(C)cc4c(c3O)/C(=C/N[C@@H](C)C(=O)OC)C(=O)C(O)=C4C(C)C)c(O)c21 (stereo in doubt; (-)-10a) |  | 1.92 µM | >25.2 | > 48.4 µM |  |
| NC12CC3CC(CC(C3)C1)C2 [AMANTADINE] |  |  | >57.39 | > 220 µM | IC50 (H5N1 subtype [9]): 3.84 µM; selectivity ratio [10]: > 57.4; IC50 (Influenza A virus [1]; [11]): 3.84 µM |
| COC(=O)[C@H](C)N/C=C1\C(=O)C(O)=C(C(C)C)c2cc(C)c(-c3c(C)cc4c(c3O)/C(=C/N[C@@H](C)C(=O)OC)C(=O)C(O)=C4C(C)C)c(O)c21 (stereo in doubt; (+)-10b) | 48.4 µM | 0.95 µM | 50.94 |  |  |
| COc1c(OC)c(C(=O)O)c2c(OC)c(-c3c(C)cc4c(C(C)C)c(OC)c(OC)c(C(=O)O)c4c3OC)c(C)cc2c1C(C)C |  |  |  |  | IC50 (H5N1 subtype [9]): 158 µM; selectivity ratio [10]: > 0.33 |
| Cc1cc2c(c(O)c1-c1c(C)cc3c(c1O)/C(=C/N[C@@H](C)C(=O)O)C(=O)C(O)=C3C(C)C)/C(=C/N[C@@H](C)C(=O)O)C(=O)C(O)=C2C(C)C (stereo in doubt; (+)-5b) |  |  |  |  | inhibition (Influenza A virus [4]): inactive; inhibition (H5N1 subtype [5]): inactive; inhibition (Influenza A virus [6]): inactive; inhibition (Influenza A virus [7]): inactive; inhibition (H5N1 subtype [8]): inactive |
| Cc1cc2c(c(O)c1-c1c(C)cc3c(c1O)/C(=C/NC(C)(C)C(=O)[O-])C(=O)C(O)=C3C(C)C)/C(=C/NC(C)(C)C(=O)[O-])C(=O)C(O)=C2C(C)C.[Na+].[Na+] (stereo in doubt; (+)-9b) | 45.5 µM | 0.89 µM | 51.11 |  |  |
| Cc1cc2c(c(O)c1-c1c(C)cc3c(c1O)/C(=C/N[C@@H](Cc1c[nH]c4ccccc14)C(=O)[O-])C(=O)C(O)=C3C(C)C)/C(=C/N[C@@H](Cc1c[nH]c3ccccc13)C(=O)[O-])C(=O)C(O)=C2C(C)C.[Na+].[Na+] (stereo in doubt; (+)-7b) | 35.6 µM | 0.25 µM | 142.6 |  |  |
| Cc1cc2c(C(C)C)c(O)c(O)c(C(=O)O)c2c(O)c1-c1c(C)cc2c(C(C)C)c(O)c(O)c(C(=O)O)c2c1O | 36.3 µM | 1.95 µM | 18.62 and 15.82 | 60.6 µM | IC50 (H5N1 subtype [9]): 2.37 µM; selectivity ratio [10]: 10.5; IC50 (Influenza A virus [1]; [11]): 3.83 µM; inhibition (Influenza A virus [4]): inactive; inhibition (H5N1 subtype [5]): inactive; inhibition (Influenza A virus [6]): inactive; inhibition (Influenza A virus [7]): inactive; inhibition (H5N1 subtype [8]): inactive |
| CC[C@H](C)[C@H](N/C=C1\C(=O)C(O)=C(C(C)C)c2cc(C)c(-c3c(C)cc4c(c3O)/C(=C/N[C@H](C(=O)[O-])[C@@H](C)CC)C(=O)C(O)=C4C(C)C)c(O)c21)C(=O)[O-].[Na+].[Na+] (stereo in doubt; (-)-8a) |  | 0.72 µM | >58.68 | > 42.2 µM |  |
| CC(=O)Oc1c(OC(C)=O)c(C(=O)O)c2c(OC(C)=O)c(-c3c(C)cc4c(C(C)C)c(OC(C)=O)c(OC(C)=O)c(C(=O)O)c4c3OC(C)=O)c(C)cc2c1C(C)C |  | 2.28 µM | 18.22 and 12.01 | 41.5 µM | IC50 (H5N1 subtype [9]): 2.98 µM; selectivity ratio [10]: > 8.7; IC50 (Influenza A virus [1]; [11]): 3.46 µM |
| CC[C@H](C)[C@H](N/C=C1\C(=O)C(O)=C(C(C)C)c2cc(C)c(-c3c(C)cc4c(c3O)/C(=C/N[C@H](C(=O)[O-])[C@@H](C)CC)C(=O)C(O)=C4C(C)C)c(O)c21)C(=O)[O-].[Na+].[Na+] (stereo in doubt; (+)-8b) | 42.2 µM | 0.32 µM | 132.03 |  |  |
| Cc1cc2c(c(O)c1-c1c(C)cc3c(c1O)/C(=C/NC(C)(C)C(=O)[O-])C(=O)C(O)=C3C(C)C)/C(=C/NC(C)(C)C(=O)[O-])C(=O)C(O)=C2C(C)C.[Na+].[Na+] (stereo in doubt; (-)-9a) |  |  | 31.96 | 50.5 µM | IC50 (Influenza A virus [1]; [11]): 1.58 µM |
| Cc1cc2c(C(C)C)c(O)c(O)c(C=O)c2c(O)c1-c1c(C)cc2c(C(C)C)c(O)c(O)c(C=O)c2c1O [GOSSYPOL] |  | 3.82 µM and 1.87 µM |  | 35.4 µM | IC50 (H5N1 subtype [9]): 2.14 µM; selectivity ratio [10]: 1.65; inhibition (Influenza A virus [4]): inactive; inhibition (H5N1 subtype [5]): inactive; inhibition (Influenza A virus [6]): inactive; inhibition (Influenza A virus [7]): inactive; inhibition (H5N1 subtype [8]): inactive |
| COc1c(OC)c(C=O)c2c(OC)c(-c3c(C)cc4c(C(C)C)c(OC)c(OC)c(C=O)c4c3OC)c(C)cc2c1C(C)C |  |  |  |  | IC50 (H5N1 subtype [9]): 103 µM; selectivity ratio [10]: > 0.54 |
| Cc1cc2c(c(O)c1-c1c(C)cc3c(c1O)/C(=C/N[C@H](C(=O)[O-])C(C)C)C(=O)C(O)=C3C(C)C)/C(=C/N[C@H](C(=O)[O-])C(C)C)C(=O)C(O)=C2C(C)C.[Na+].[Na+] (stereo in doubt; (+)-6b) | 43.8 µM | 1.27 µM | 34.5 |  |  |
